The values below come from publication PMC12085399, “Quantitative in vitro-to-in vivo extrapolation of human adrenergic and trace amine-associated receptor 1 potencies of pre-workout supplement ingredients using physiologically based kinetic modelling-based reverse dosimetry” (Archives of Toxicology, 2025).

Where two headings read alike, the source gives them in different places.

The nature of one data set: in vitro. Conditions: human; for Papp B→A at 60 min, 10 µM: Caco-2, pH 7.4; for recovery at 60 min, 10 µM: after 60 min, mean ± SD. On the procedure:
(§1) Caco-2 cells (ATCC, Manassas, VA, USA; passage 30–44) were cultured in DMEM (Gibco, New York, USA) containing 4.5 g/L d-glucose, 4 mM L-glutamine and supplemented with 10% FBS (Gibco, Grand Island, NY, USA), 1% minimal essential medium non-essential amino acids (Gibco, Paisley, UK), 100 units/mL penicillin and 100 µg/mL streptomycin (Gibco, Grand Island, NY, USA). Cells were seeded at a density of 4.0 × 10^4 cells/cm^2 on polyester transwell insert membranes (12 mm insert, 0.4 µm pore size; Corning incorporated, Kennebunk, ME, USA). Cells were maintained in a humidified incubator with 5% CO2 at 37 °C for 21 or 22 days in 0.5 mL and 1.5 mL medium in the apical and basolateral compartments, respectively. The medium was refreshed every two or three days and always one day before the permeability assay.
(§2) On the day of the experiment, cells were washed twice with HBSS without phenol red (pH 7.4; Sigma-Aldrich, Steinheim, Germany) supplemented with 0.35 g/L sodium bicarbonate and 25 mM HEPES and they were equilibrated in this supplemented HBSS for 15 min in a humidified incubator with 5% CO2 at 37 °C. […] These stocks were diluted to a final concentration of 10 µM in pre-warmed supplemented HBSS (final DMSO level = 0.1%). After 15 min, the transepithelial electrical resistance (TEER) was measured with an Epithelial Voltohmmeter (World Precision Instruments, Sarasota, USA). Compound transport was studied in two directions: from the apical to the basolateral compartment (A-B) and from the basolateral to the apical compartment (B-A). For A-B experiments, 450 µL of the compound (10 µM) was added to the apical side and 1200 µL supplemented HBSS was added to the basolateral side. A sample of 50 µL was removed immediately from the apical compartment at time point zero. After 15 and 30 min, samples were taken from the basolateral compartment. Cells were kept in the incubator during the experiment. After 60 min, medium from both compartments was sampled, cells were washed twice with supplemented HBSS and were maintained in the incubator. After 15 min, the TEER was measured again to check for epithelial barrier damage due to compound exposure. After this, cells were lysed in RIPA buffer (Thermo Scientific, Rockford, IL, USA). For B-A experiments, 400 µL of supplemented HBSS was added to the apical side and 1250 µL of the compound (10 µM) was added to the basolateral side. A sample of 50 µL was removed immediately from the basolateral compartment at time point zero. After 15 and 30 min, samples were taken from the apical compartment. After 60 min, samples were taken similarly as in A-B experiments. The sampled medium and cell lysates were stored at −20 °C till the day of the liquid chromatography–mass spectrometry (LC–MS/MS) analysis. All experiments were run in duplicate. The compounds were quantified with LC–MS/MS as described in Sect. "LC–MS/MS analysis".
(§3) Before chemical analysis, cell lysates were two times diluted in ice-cold methanol and centrifuged at 15,000 rpm at 4 °C. The supernatant was then injected into the LC–MS/MS system. Sampled buffer from donor compartments was diluted 40 times in buffer and samples from the receiver compartment were analysed undiluted. Standards were prepared in the same assay buffer to quantify the amount of compound in medium samples. For quantification of compounds in cell lysates, standards were prepared in a mixture of 50% RIPA buffer and 50% methanol.
(§4) All data are presented as mean ± SD.
(§5) For the < Tsi > a value of 3.32 h was used (Grandoni et al. [2019]).

In a further data set the test system is Caco-2 cells. Description: in vitro. Conditions: scaled from corrected Caco-2 Papp A-B, human. The protocol: as §1, §2, §3, §4, §5
Data set [1] is described as follows: In vitro hepatic clearance by human liver S9 (compound depletion). The class given is in vitro ADME. The protocol: In vitro intrinsic hepatic clearance (CLint) values of the phenethylamine analogues were determined in experiments with pooled human liver S9 (HLS9; Corning, Woburn, MA, USA and Gibco, USA), by measuring the rate of compound depletion. Stocks of 1 mM PEA compounds were prepared in DMSO and stocks of 10 mg/mL alamethicin were prepared in methanol. The final incubation mixtures consisted of 1 µM of PEA compound (0.1% DMSO) in 100 mM potassium phosphate buffer with 5 mM magnesium chloride (pH 7.4) supplemented with 0.025 mg/mL alamethicin (0.25% methanol) and 0.1–2 mg/mL HLS9. […] Incubation mixtures were first pre-incubated at 37 °C in a shaking incubator at 300 rpm for 5 min. After 5 min, the reaction was initiated by adding a co-factor mix in supplemented buffer with final concentrations of 3 mM nicotinamide adenine dinucleotide phosphate (NADPH; for oxidation, reduction and hydrolysis), 5 mM uridine diphosphate glucuronic acid (UDPGA; for glucuronidation), 0.2 mM adenosine 3’-phosphate 5’-phosphosulfate lithium salt hydrate (PAPS; for sulfation) and 0.2 mM S-(5’-Adenosyl)-L-methionine p-toluenesulfonate salt (SAM; for methylation). The final incubation volume was 100 µL and incubations were performed in 1.5 mL Safe-Lock Eppendorf tubes (Eppendorf) in a shaking incubator (300 rpm) at 37 °C (Eppendorf Thermomixer). Incubations were terminated by adding 100 µL ice-cold acetonitrile after, 0, 2.5, 5, 10, 20, 40 and 60 min. Then, samples were vortexed, put on ice and stored at -20 °C until the day of the LC–MS/MS analysis. Controls of incubation mixtures without HLS9 or mixtures without co-factors were also included. Two independent experiments, both in duplicate, were performed on different days. On the day of the LC–MS/MS analysis, samples were thawed and centrifuged at 15,000 rpm for 10 min. The supernatant was collected in glass insert vials for LC injection (BGB Analytik, Harderwijk, The Netherlands). Details on the methods of the LC–MS/MS analysis are described in Sect. "LC–MS/MS analysis". After determining the PEA (analogue) amount at the different time points, the CLint was calculated. The natural logarithm of compound concentrations was plotted against time and the slope of this curve represented the elimination rate constant k (in 1/min). The half-life (t1/2 in minutes) was calculated by: ln (2)/k (in 1/min). The volume of incubation (V) in µL/mg protein was determined by: 1000 / HLS9 concentration (in mg/mL). Finally, CLint could be calculated by: CLintμL/min/mg protein=VμL/mg protein∗ln2/t1/2min.
The fraction unbound in these in vitro liver clearance incubations was calculated with the method of (Hallifax and Houston [2006]) in which unspecific binding in HLS9 incubations was assumed to be the same as in liver microsomal incubations. The in vitro obtained HLS9 CLint values were corrected for protein binding in the HLS9 incubation and were scaled to a whole liver by using a scaling factor of 121 mg HLS9/g liver (Houston and Galetin [2008]).

The test system of the next data set is ADRα1A. Put plainly: PBK modelling-based reverse dosimetry of in vitro EC50 to ED50, ADRα1A. To be noted: predicted human oral ED50 from in vitro EC50 (Pinckaers et al. [2024]) and modelled Cmax plasma venous. From the text:
(§6) The in vitro effect concentrations (EC50), for activation of the α1A, α1B, α1D, α2A, α2B, β1 and β2 ADR activation and the activation of TAAR1, were obtained from our previous study (Pinckaers et al. [2024]).

The subject of the next data set is ADRα1B. Description: PBK modelling-based reverse dosimetry of in vitro EC50 to ED50, ADRα1B. Conditions: predicted human oral ED50 from in vitro EC50 (Pinckaers et al. [2024]) and modelled Cmax plasma venous.
Source text: as §6

Another data set relates to ADRα1D. Put plainly: PBK modelling-based reverse dosimetry of in vitro EC50 to ED50, ADRα1D. Conditions: predicted human oral ED50 from in vitro EC50 (Pinckaers et al. [2024]) and modelled Cmax plasma venous.
Source text: as §6

The test system of another data set is ADRα2A. Put plainly: PBK modelling-based reverse dosimetry of in vitro EC50 to ED50, ADRα2A. Conditions: predicted human oral ED50 from in vitro EC50 (Pinckaers et al. [2024]) and modelled Cmax plasma venous.
Source text: as §6

The subject of a further data set is ADRβ2. Description: PBK modelling-based reverse dosimetry of in vitro EC50 to ED50, ADRβ2. To be noted: predicted human oral ED50 from in vitro EC50 (Pinckaers et al. [2024]) and modelled Cmax plasma venous.
Source text: as §6

The next data set concerns TAAR1. Description: PBK modelling-based reverse dosimetry of in vitro EC50 to ED50, TAAR1. On the set-up: species or system human. To be noted: predicted human oral ED50 from in vitro EC50 (Pinckaers et al. [2024]) and modelled Cmax plasma venous.
Source text: as §6

[2] abbreviates: Caco-2, pH 7.4, Papp A-B, Caco-2, apical to basolateral, 10 µM, HBSS pH 7.4, mean ± SD, duplicate.

Broadly, the Papp B→A is how fast a substance crosses the layer from the basolateral side. One may read the Papp A→B as the apparent permeability from the apical to the basolateral side of a cell layer.

The compound `COCCc1ccc(OCC(O)CNC(C)C)cc1` (centres unmarked) [Metoprolol, metoprolol, reference compound] yielded a Papp B→A at 60 min, 10 µM in “in vitro” of 9.25 ± 0.17 ×10⁻⁶ cm/s. Besides, the apical-to-basolateral permeability (Papp A→B) at 60 min, 10 µM in the data set “in vitro” (setting [2]) came out at 11.2 ± 0.197 ×10⁻⁶ cm/s.
In the case of `NCC(O)c1ccc(O)cc1` (centres unmarked) [p-Octopamine, octopamine], in the data set “in vitro”, the Papp B→A at 60 min, 10 µM was determined as 0.117 ± 0.0171 ×10⁻⁶ cm/s. Further, the Papp A→B at 60 min, 10 µM was determined as 0.584 ×10⁻⁶ cm/s in “in vitro” (Caco-2, pH 7.4, Papp A-B corrected, corrected for the difference between Papp A-B of metoprolol in this study and in literature); 0.164 ± 0.0701 ×10⁻⁶ cm/s in the data set “in vitro” (setting [2]). In addition, the recovery at 60 min, 10 µM in “in vitro” (Caco-2, pH 7.4, Recovery (A-B), Caco-2, A-B experiments) is 98.9 ± 1.77%; in the data set “in vitro” (Caco-2, pH 7.4, Recovery (B-A), Caco-2, B-A experiments), 109 ± 15%. In the data set on Caco-2 cells, the “fa (fraction absorbed)” value is 0.947. Also, the “ka (absorption rate constant)” value with Caco-2 cells is 0.395 h⁻¹. Further, the “Predicted intrinsic hepatic metabolic clearance CLmet” value in data set [1] (CLint,u scaled to a whole liver, 121 mg HLS9/g liver, human) was 75.4 L/h. Moreover, the “metabolism in incubations without co-factor mix” value in data set [1] (HLS9 without co-factor mix) is reported as “metabolized in incubations without co-factor mix”. For the same compound, the k el at 1 µM in data set [1] (human, pH 7.4) was 0.000203 s⁻¹. Besides, the microsomal CLint at 1 µM in data set [1] (human, s9, pH 7.4, CLint app corrected for unspecific protein (HLS9) binding, read-out: In vitro CLint,u) amounted to 7.06 µL/min/mg; in data set [1] (human, s9, pH 7.4, human liver S9 with co-factor mix (NADPH, UDPGA, PAPS, SAM), 1 µM, read-out: In vitro CLint app), 6.05 µL/min/mg. Also, in the data set with ADRα1A, the “ADRα1A ED50” value was 15.7 mg/kg bw. Further, the “ADRα1B ED50” value with ADRα1B is 5.58 mg/kg bw. In the data set on ADRα1D, the “ADRα1D ED50” value is given as 1.72 mg/kg bw. Also, the “ADRα2A ED50” value with ADRα2A is on record as “– (compounds with a dash (-) did not activate the receptors in vitro at concentrations ≤ 300 µM)”. Further, the “ADRβ2 ED50” value in the data set on ADRβ2 was “– (compounds with a dash (-) did not activate the receptors in vitro at concentrations ≤ 300 µM)”. In addition, in the data set on TAAR1, the “TAAR1 ED50” value is given as 65.8 mg/kg bw.
